Measured values as given in patent US11285158B2, “Uses of pyrimidopyrimidinones as SIK inhibitors” (The General Hospital Corporation, priority 2017, dated 2022).
“Also recorded” adds a separate entry of the source.

Key:
[1] = test system: normal human melanocytes, UACC62 melanoma cells, and UACC257 melanoma cells; experiment: MITF and TRPM1 mRNA expression by qPCR; type: cell-based; details: for Mitf expression: UACC62 and UACC257 melanoma cells (FIG. 7); for TRPM1 mRNA levels (MITF gene target): delayed relative to MITF induction, 4 uM, over 24 hours; for MITF mRNA expression: UACC62 and UACC257 cells, 3 hours of treatment, relative to RPL11
Method: Cell Culture. UACC257 and UACC62 cells were grown in RPM1+1% penicillin and streptomycin+5% fetal bovine serum. Normal human melanocytes were grown in TIVA, and starved 24 hours in HAM's F-12+1% penicillin and streptomycin before all molecular experiments.
qPCR. mRNA was extracted from cells using the RNeasy Mini Kit (Qiagen®). KAPA SYBR® FAST Universal One-Step qRT-PCR Kit (KAPA BIOSYSTEMS®) was used to prepare mRNA samples for qPCR and samples were analyzed using the 7500 Fast Real Time PCR System (Applied Biosystems®). The relative expression of each gene was calculated by 7500 Fast System Software program, which utilizes Ct normalized to mRNA levels of RPL11 to calculate relative expression. Results are reported relative to control cells.

[2] = test system: UACC257 melanoma cells; experiment: Cell pelleting experiment (gross pigmentation of cell pellets); type: cell-based, human; details: 4 uM, 3 days of treatment
Method: Cell pelleting experiments. 1×10^5 UACC257 cells were plated per well in a 6-well plate. […] After 3 days, cells were trypsinized with 0.25% trypsin, resuspended in RPMI media, and pelleted. Pellets were washed 1× with PBS and allowed to dry before imaging.

[3] = test system: Mc1r^e/e;K14—Scf mice; experiment: Mouse pigmentation experiment, redhair model; type: in vivo
Method: (§1) Mice. C57BL/6J Mc1r^e/e mice were crossed with K14—Scf transgenic mice. C57BL/6J Tyr^c2j/c2j were crossed with K14—Scf transgenic mice. (Kunisada et al. 1998; D'Orazio et al. 2006).
(§2) Mouse pigmentation experiments. Animals were treated with vehicle control or 37.5 mM HG 9-9-01 until uniform gross darkening was visible as stated in figure legends. Daily differences in darkening of the skin were measured by reflective colorimetry. Skin was harvested, fixed, and processed for paraffin embedding. Sections were cut from paraffin blocks, and sections were stained utilizing hematoxylin and eosin (morphology) and Fontana-Masson (melanin). Melanin dissolution was conducted utilizing NaOH lysis method (Wakamatsu and Ito 2002).
(§3) Colorimeter Measurements: Differences in darkening of the skin were measured by reflective colorimetry (CIE L* white-black color axis) utilizing a CR-400 Colorimeter (Minolta®) calibrated by a calibration plate (C: Y 93.1, x 0.3133, y 0.3194) before each set of measurements.
(§4) To test this, a previously described mouse “redhair” model was utilized which carries the inactivating Mc1r^e/e mutant allele and a transgene, K14—SCF, in which Stem Cell Factor expression is driven by the Keratin-14 promoter allowing for epidermal homing of melanocytes (Kunisada et al. 1998; D'Orazio et al. 2006). Albino mice harboring a mutation in the tyrosinase gene were combined with the K14—Scf transgene (tyr^c/c;K14—Scf mice) and served as controls to evaluate whether the pigmentation afforded by topical SIK inhibitor was dependent upon the canonical tyrosinase-melanin pathway. […] Skin pigmentation remained in its pretreatment state over the next 30 days (FIG. 3A; 3B). […] These findings combined with the small molecule and lipophilic nature of the SIK inhibitors led us to investigate the use of SIK inhibitors for topical eumelanization of human skin.

[4] = test system: Tyr^c/c;K14—Scf mice; experiment: Mouse pigmentation experiment, albino control mice; type: in vivo
Method: as §1, §2, §3, §4

[5] = test system: human breast skin explants; experiment: Human skin explants: darkening/pigmentation after topical SIK inhibitor; type: cell-based; details: for Results (skin darkening): Human Skin Explants
Method: Image and Colorimeter analysis were conducted 24 hours after the last treatment.
Human pigmentation experiments. Full thickness human breast skin explants were cultured in petri dishes with a solid phase and liquid phase phenol red free DMEM medium with […], 5% fungizone (Gibco®), and 10% FBS. Passive application refers to simply applying the treatment to skin without further rubbing or manipulation. Mechanical application refers to application of agents to skin with further rubbing of treatment with 10 clockwise turns of a gloved cotton swab applicator. Skin was harvested, fixed, and processed for paraffin embedding. Sections were cut from paraffin blocks, and sections were stained utilizing hematoxylin and eosin (morphology) and Fontana-Masson (melanin).

[6] = test system: panel of 468 human kinases; experiment: KinomeScan kinome profiling; type: binding
Method: Kinome Profiling. Kinome profiling was performed using KinomeScan ScanMAX at compound concentration of 1 μM. Protocols are available from DiscoverX®.
(§5) Since there are limitations to topical delivery of drugs into human skin epidermis, novel SIK inhibitors designed to enhance epidermal permeation by reducing the size and increasing the lipophilicity (c Log P) to develop second generation SIK inhibitors YKL 06-061 and YKL 06-062 were derived (FIG. 6) (Bos and Meinardi 2000; Hadgraft and Pugh 1998). […] To assess the kinome selectivity information of new analogs, YKL-06-061 was screened across a panel of 468 human kinases at a concentration of […] using the KinomeScan methodology (DiscoverX). […] As the KinomeScan assays measure binding, enzymatic assays for these targets were also performed either in-house or using the SelectScreen Kinase Profiling Service at Thermo Fisher Scientific (Madison, Wis.).

[7] = target: SIKs; experiment: Kinase activity in vitro assay (biochemical IC50 against SIKs); design: species or system human; details: compared with HG 9-91-01 (FIG. 6)
Method: Kinase activity in vitro assay. The biochemical activities against SIK2 were measured by Caliper-based mobility shift assay (PerkinElmer®). […] Reactions were quenched by adding 20 mM EDTA (pH 8) after 1 hour, and percentage of substrate conversion was measured by LabChip EZ Reader II (PerkinElmer®). IC50's for SIK2 inhibition were calculated using SmartFit nonlinear regression in Genedata® Screener software suite (Genedata®).
(§6) All other in vitro kinase assay were conducted using the SelectScreen Kinase Profiling Service at Thermo Fisher Scientific® (Madison, Wis.). The protocols are available from Thermo Fisher Scientific® website.

[8] = test system: FRK and SIKs; experiment: Enzymatic assays of KinomeScan top hits (in-house or SelectScreen); type: biochemical, human
Method: as §6, §5

**Q.** For `COc1ccc(N(C(=O)Nc2c(C)cccc2C)c2cc(Nc3ccc(N4CCN(C)CC4)cc3)ncn2)c(OC)c1` [HG 9-91-01], which Mitf expression [1] is on record?
**A.** induces Mitf expression

**Q.** What about the “TRPM1 mRNA levels (MITF gene target)” value [1] of the same compound?
**A.** increased

**Q.** What about the “MITF mRNA expression” value ([1]; normal human melanocytes) of the same compound?
**A.** Dose-dependent increases

**Q.** And the “Gross pigmentation of cell pellets” value [2]?
**A.** Gross pigmentation was observed

**Q.** What about the “Fontana-Masson staining, difference between treatment groups” value ([3]; 40 days after treatment, Mc1r^e/e;K14—Scf and Tyr^c/c;K14—Scf mice) of the same compound?
**A.** no differences

**Q.** What about the “Skin morphology, hematoxylin and eosin stain” value ([3]; 40 days after treatment, all mice) of the same compound?
**A.** normal morphology

**Q.** And the “Nuclear capping of melanosomes within epidermal keratinocytes” value ([3]; Fontana-Masson stained skin sections)?
**A.** Nuclear capping of melanin-laden melanosomes was observed

**Q.** And the “Time to reversal of darkening after treatment was stopped” value ([3]; after 6 days of topical treatment)?
**A.** ≤ 10 days

**Q.** And the “Skin morphology, hematoxylin and eosin staining” value ([3]; after treatment)?
**A.** normal morphology

**Q.** What about the “Extractable eumelanin, NaOH lysis of skin samples” value ([3]; compared to all other treatment groups) of the same compound?
**A.** visible increase in extractable eumelanin

**Q.** What about the Course of darkening ([3]; topical application, 6 days of treatment) of the same compound?
**A.** progressive and reversible; also recorded: progressive over 6 days of treatment

**Q.** What about the “Reflective colorimetry (CIE L* white-black color axis)” value ([3]; topical, daily, 37.5 mM) of the same compound?
**A.** significant darkening

**Q.** And the Gross skin darkening ([3]; topical, daily, 37.5 mM, 30 uL, 6 days / 7 days (FIG. 2))?
**A.** robust darkening

**Q.** What about the “Melanin production, Fontana-Masson staining” value ([3]; treated skin areas) of the same compound?
**A.** strong induction of melanin production

**Q.** And the “Epidermis morphology, hematoxylin and eosin staining” value ([4]; after treatment)?
**A.** normal morphology

**Q.** What about the “Pigment induction, Fontana-Masson staining” value ([4]; albino mice) of the same compound?
**A.** no pigment induction

**Q.** What about the “Visible change in skin pigmentation” value ([4]; albino mice, topical, daily, 37.5 mM) of the same compound?
**A.** No visible change in skin pigmentation

**Q.** What about the “Change of skin colour during and after treatment” value ([4]; during treatment or 14 days after treatment was stopped) of the same compound?
**A.** No change

**Q.** Which “Results (skin darkening)” value ([5]; Table 2, passive topical application) does the source give for `COc1cc(N2CCN(C)CC2)ccc1Nc1ncc2c(n1)N(C1CCC1)C(=O)N(c1c(C)cccc1C)C2` [YKL-06-061, 1-cyclobutyl-3-(2,6-dimethylphenyl)-7-(2-methoxy-4-(4-methylpiperazin-1-yl)phenylamino)-3,4-dihydropyrimido[4,5-d]pyrimidin-2(1H)-one] here?
**A.** Darkens

**Q.** What about the “Results (skin darkening)” value ([5]; Table 4) of the same compound?
**A.** Darkens

**Q.** And the “Gross pigmentation of human skin explants” value ([5]; passive topical application, 37.5 mM, 8 days (1×/day))?
**A.** induced significant pigmentation

**Q.** What about the “Melanin content, Fontana Masson staining” value ([5]; passive topical application, 37.5 mM, 8 days, compared to control) of the same compound?
**A.** increased melanin content

**Q.** And the Mitf expression [1]?
**A.** induces Mitf expression

**Q.** What about the “TRPM1 mRNA levels (MITF gene target)” value [1] of the same compound?
**A.** increased

**Q.** What about the “MITF mRNA expression” value ([1]; normal human melanocytes) of the same compound?
**A.** dose dependent increase

**Q.** And the “Induction of the pigmentation pathway compared with HG 9-91-01” value ([1]; normal human melanocytes, Mitf and TRPM1 mRNA (FIG. 4))?
**A.** as efficacious in inducing the pigmentation pathway as HG 9-91-01

**Q.** And the “S(1) score” value ([6]; concentration of 1 pM)?
**A.** 0.02

**Q.** And the “Number of kinases displaying tight binding (Ambit scores of less than or equal to 1)” value ([6]; concentration of 1 µM)?
**A.** 16

**Q.** What about the “IC50 values for inhibition of SIKs” value [7] of the same compound?
**A.** comparable

**Q.** And the “Kinase selectivity in enzymatic assays” value [8]?
**A.** only inhibited one kinase (FRK) stronger than SIKs
